Measured values taken from patent publication US20120291159A1, “Azoline Compounds for Combating Invertebrate Pests” (BASF SE, priority 2009, published 2012).
Where a name gives a salt, the structure may show the parent alone.

Legend:
Type in all cases: in vivo
[1] = system: Orchid Thrips (Dichromothrips corbetti); experiment: Orchid thrips floral-immersion test (B.5); details: 500 ppm, adult thrips, after 4 days
Description: B.5 Orchid Thrips (Dichromothrips corbetti)
Dichromothrips corbetti adults used for bioassay are obtained from a colony maintained continuously under laboratory conditions. […]
Thrips potency of each compound is evaluated by using a floral-immersion technique. Plastic petri dishes are used as test arenas. All petals of individual, intact orchid flowers are dipped into treatment solution and allowed to dry. Treated flowers are placed into individual petri dishes along with 10-15 adult thrips. The petri dishes are then covered with lids. All test arenas are held under continuous light and a temperature of about 28° C. for duration of the assay. After 4 days, the numbers of live thrips are counted on each flower, and along inner walls of each petri dish. The level of thrips mortality is extrapolated from pre-treatment thrips numbers.

[2] = system: Boll Weevil (Anthonomus grandis); experiment: Boll weevil microtiter diet test (B.11); details: 120 h, egg and larval mortality after 5 days, read-out: mortality in comparison with untreated controls
Description: B.11 Boll Weevil (Anthonomus grandis)
For evaluating control of boll weevil (Anthonomus grandis) the test unit consisted of 24-well-microtiter plates containing an insect diet and 20-30 A. grandis eggs.
The compounds were formulated using a solution containing 75% v/v water and 25% v/v DMSO. Different concentrations of formulated compounds were sprayed onto the insect diet at 20 μl, using a custom built micro atomizer, at two replications.
After application, microtiter plates were incubated at about 23±1° C. and about 50±5% relative humidity for 5 days. Egg and larval mortality was then visually assessed.

[3] = system: Mediterranean Fruitfly (Ceratitis capitata); experiment: Mediterranean fruitfly microtiter diet test (B.4); details: 120 h, egg and larval mortality after 5 days, read-out: mortality in comparison with untreated controls
Description: B.4 Mediterranean Fruitfly (Ceratitis capitata)
For evaluating control of Mediterranean fruitfly (Ceratitis capitata) the test unit consisted of microtiter plates containing an insect diet and 50-80 C. capitata eggs. The compounds were formulated using a solution containing 75% v/v water and 25% v/v DMSO. Different concentrations of formulated compounds were sprayed onto the insect diet at 5 μl, using a custom built micro atomizer, at two replications. After application, microtiter plates were incubated at about 28±1° C. and about 80±5% relative humidity for 5 days. Egg and larval mortality was then visually assessed.

[4] = system: Vetch Aphid (Megoura viciae); experiment: Vetch aphid leaf disk microtiter test (B.9); details: foliar, 120 h, adult aphids on broad bean leaf disks, 5 days, read-out: mortality in comparison with untreated controls
Description: B.9 Vetch Aphid (Megoura viciae)
For evaluating control of vetch aphid (Megoura viciae) through contact or systemic means the test unit consisted of 24-well-microtiter plates containing broad bean leaf disks.
The compounds were formulated using a solution containing 75% v/v water and 25% v/v DMSO. Different concentrations of formulated compounds were sprayed onto the leaf disks at 2.5 μl, using a custom built micro atomizer, at two replications.
After application, the leaf disks were air-dried and 5-8 adult aphids placed on the leaf disks inside the microtiter plate wells. The aphids were then allowed to suck on the treated leaf disks and incubated at about 23±1° C. and about 50±5% relative humidity for 5 days. Aphid mortality and fecundity was then visually assessed.

[5] = system: Silverleaf Whitefly (Bemisia argentifoli); experiment: Silverleaf whitefly cotton plant spray test (B.6); details: 300 ppm; whitefly adults on sprayed cotton, 3 days after treatment
Description: B.6 Silverleaf Whitefly (Bemisia argentifoli)
(§1) The active compounds were formulated in cyclohexanone as a 10,000 ppm solution supplied in tubes. The tubes were inserted into an automated electrostatic sprayer equipped with an atomizing nozzle and they served as stock solutions for which lower dilutions were made in 50% acetone:50% water (v/v). A nonionic surfactant (Kinetic®) was included in the solution at a volume of 0.01% (v/v).
Cotton plants at the cotyledon stage (one plant per pot) were sprayed by an automated electrostatic plant sprayer equipped with an atomizing spray nozzle. The plants were dried in the sprayer fume hood and then removed from the sprayer. Each pot was placed into a plastic cup and about 10 to 12 whitefly adults (approximately 3-5 days old) were introduced. The insects were collected using an aspirator and a nontoxic Tygon® tubing connected to a barrier pipette tip. The tip, containing the collected insects, was then gently inserted into the soil containing the treated plant, allowing insects to crawl out of the tip to reach the foliage for feeding. Cups were covered with a reusable screened lid. […] Mortality was assessed 3 days after treatment, compared to untreated control plants.

[6] = system: Cowpea Aphid (Aphis craccivora); experiment: Cowpea aphid spray test on potted cowpea plants (B.2); details: 100 ppm; sprayed cowpea plants; assessed after 24, 72 and 120 hours
Description: If not otherwise specified the test solutions were prepared as follow:
The active compound was dissolved at the desired concentration in a mixture of 1:1 (vol:vol) distilled water:acteon. The test solution was prepared the day it was used and in general at concentrations of […] (wt/vol).
B.2 Cowpea Aphid (Aphis craccivora)
Potted cowpea plants colonized with approximately 100-150 aphids of various stages were sprayed after the pest population has been recorded. Population reduction was assessed after 24, 72, and 120 hours.

[7] = system: Tobacco Budworm (Heliothis virescens); experiment: Tobacco budworm cotton plant spray test (B.10); details: 2500 ppm; larvae on sprayed cotton, 4 days after treatment
Description: B.10 Tobacco Budworm (Heliothis virescens) I
as §1
Cotton plants were grown 2 plants to a pot and selected for treatment at the cotyledon stage. Test solutions were sprayed onto the foliage by an automated electrostatic plant sprayer equipped with an atomizing spray nozzle. The plants were dried in the sprayer fume hood and then removed from the sprayer. Each pot was placed into perforated plastic bags with a zip closure. About 10 to 11 budworm larvae were placed into the bag and the bags zipped closed. Test plants were maintained in a growth room at about 25° C. and about 20-40% relative humidity for 4 days, avoiding direct exposure to fluorescent light (24 hour photoperiod) to prevent trapping of heat inside the bags. Mortality and reduced feeding were assessed 4 days after treatment, compared to untreated control plants.

| Structure (SMILES) | mortality at 2500 ppm [2] | mortality at 2500 ppm [3] | mortality at 2500 ppm [4] | further results |
| --- | --- | --- | --- | --- |
| O=C(NCC(F)(F)F)c1cc(C2=NOC(c3cc(Cl)cc(Cl)c3)(C(F)(F)F)C2)ccn1 (centres unmarked) [compound 2-3] |  |  |  | mortality in comparison with untreated controls [1]: at least 75% |
| NCc1cccc(C2=NOC(c3cc(Cl)cc(Cl)c3)(C(F)(F)F)C2)c1 (centres unmarked) [compound 3-1, 3-[5-(3,5-dichloro-phenyl)-5-trifluoromethyl-4,5-dihydro-isoxazol-3-yl]-benzylamine hydrochloride] | ≥ 75% | ≥ 75% | ≥ 75% |  |
| CCC(=O)NCc1cccc(C2=NOC(c3cc(Cl)cc(Cl)c3)(C(F)(F)F)C2)c1 (centres unmarked) [compound 3-2, N-{3-[5-(3,5-dichloro-phenyl)-5-trifluoromethyl-4,5-dihydro-isoxazol-3-yl]-benzyl}-propionamide] | ≥ 75% | ≥ 75% | ≥ 75% |  |
| CC(=O)NCc1cccc(C2=NOC(c3cc(Cl)cc(Cl)c3)(C(F)(F)F)C2)c1 (centres unmarked) [compound 3-3, N-{3-[5-(3,5-dichloro-phenyl)-5-trifluoromethyl-4,5-dihydro-isoxazol-3-yl]-benzyl}-acetamide] | ≥ 75% | ≥ 75% | ≥ 75% |  |
| CSCC(=O)NCc1cccc(C2=NOC(c3cc(Cl)cc(Cl)c3)(C(F)(F)F)C2)c1 (centres unmarked) [compound 3-4, N-{3-[5-(3,5-dichloro-phenyl)-5-trifluoromethyl-4,5-dihydro-isoxazol-3-yl]-benzyl}-2-methylsulfanyl-acetamide] |  | ≥ 75% |  |  |
| CCCC(=O)NCc1cccc(C2=NOC(c3cc(Cl)cc(Cl)c3)(C(F)(F)F)C2)c1 (centres unmarked) [compound 3-5, N-{3-[5-(3,5-dichloro-phenyl)-5-trifluoromethyl-4,5-dihydro-isoxazol-3-yl]-benzyl}-butyramide] | ≥ 75% | ≥ 75% | ≥ 75% |  |
| CCCC(=O)OCc1cccc(C2=NOC(c3cc(Cl)cc(Cl)c3)(C(F)(F)F)C2)c1 (centres unmarked) [compound 3-9] |  |  |  | mortality in comparison with untreated controls [5]: at least 75% |
| CN1CCC(Oc2cccc(C3=NOC(c4cc(Cl)cc(Cl)c4)(C(F)(F)F)C3)c2)C1=O (centres unmarked) [compound 5-1] |  |  |  | mortality in comparison with untreated controls [6]: at least 75% |
| [O-][S+](c1cccc(C2=NOC(c3cc(Cl)cc(Cl)c3)(C(F)(F)F)C2)c1)C(F)(F)F (centres unmarked) [compound 6-2] |  |  |  | mortality in comparison with untreated controls [7]: at least 75% |
